Measurements from patent US20120277265A1, “NOVEL POLYQUINOLINE DERIVATIVES AND THE THERAPEUTIC USE THEREOF” (CENTRE NATIONAL DE LA RECHERCHE SCIENTIFIQUE (C.N.R.S.), priority 2005, published 2012).

Assays:
[1] = Competition reaction between ligand (Ls), CuCl2 and competing chelator (Lc), UV-visible; affinity constants; conditions: Ls/CuCl2/Lc 1/1/1 at 15 μM; solvent per ligand as in Table 3
Method: An organic solvent (CH3OH, dioxane or DMSO) was added in order to achieve good solubility of all the ligands and metal complexes in the concentrations used in these experiments. Monitoring has shown that all the ligands and metal complexes examined yield results corresponding to the Beer-Lambert Law in the experimental conditions used.
Lc competing chelators were selected to provide a range of stability constants for the metal ion M presenting intervals of approximately one or two log units, as well as to make it possible for each competition experiment to quantify one of the Ls, MLs, Lcc or MLc species with a UV-vis spectrum wavelength without contaminating the three other species (FIG. 7). […] As the concentration [MLs]=x % of C is measured on the UV-visible spectra, the concentrations [Ls]=(1−x) % of C, [MLc]=(1−x) % of C and [Lc]=x % of C can be deduced therefrom and:

[2] = UV-visible spectrophotometric titration with CuCl2 (metal/ligand stoichiometry); format: binding; conditions: 15 μM ligand; Tris-HCl buffer pH 7.4/organic solvent, per ligand as in Table 3 column Solvent
Method: (§1) An organic solvent (CH3OH, dioxane or DMSO) was added in order to achieve good solubility of the ligands and metal complexes in the concentrations used in these experiments. Exact proportions of the organic solvent/buffer mixture are specified for each UV-visible characterisation of the different ligands or metal complexes.
(§2) Aliquot portions of concentrated CuCl2 or ZnCl2 solutions (M) are added to a 15 μM ligand solution so as to induce only negligible variations in volume. After each addition, changes in absorption spectra are observed immediately and are consistent between two additions, which corresponds to a rapid complexing process. The exact absorption values relating to each ligand and the copper(II) or zinc(II) complexes thereof are detailed hereinafter in the Experimental part (in the Synthesis part for ligands and hereinafter for the metal complexes).
(§3) The stoichiometry of the different ligands (L) for Cu(II) or ZN(II) have therefore been determined spectrophotometrically by metal ion titration. In this example, for an M/L ratio increasing from 0 to 1, π→π* with transition, centred at 251 nm for the free ligand, is shifted to a lower energy with a concomitant appearance of an absorption band in the visible region of the spectrum (λmax to 383 nm), which is probably the result of an MLCT transition. For greater M/L ratios, no additional change in the UV-visible absorption spectra is observed.

[3] = biological target: T1, Aβ1-42 (Homo sapiens, UniProt P05067); experiment: Inhibition of the precipitation of Aβ1-42 by the addition of ligand (Micro BCA assay of soluble/aggregated peptide); format: biochemical; conditions: Aβ1-42 5 μM, pH 7.4; for CuCl2 % soluble Aβ: 20 μM CuCl2, 1 h 37° C. then 1 h with 200 μM ligand; for FeCl3 % soluble Aβ: 20 μM FeCl3, 1 h 37° C. then 1 h with 200 μM ligand; for ZnCl2 % soluble Aβ: 20 μM ZnCl2, 1 h 37° C. then 1 h with 200 μM ligand; for without metal % soluble Aβ: no metal salt, 1 h 37° C. then 1 h with 200 μM ligand
T1 construct: The β-amyloid peptide Aβ1-42 (Aβ1-42) was synthesised, purified (to a purity greater than 95%); made in house; host or cells: chemical peptide synthesis (no expression host)
Method: After a further hour of incubation, the reaction mixture is centrifuged.
Before use, the water [of Milli-Q Millipore quality] and all buffer solutions were treated on Chelex-100 resin (Biorad) (5 mg/ml) and filtered through 0.2 μm filters (Whatman) to remove potential traces of metal ions or particles.
Working solutions of the peptide were prepared by solubilising 1 mg of lyophilised peptide in 500 μl of water and 500 μl of an aqueous NaOH solution pH=12.0, while stirring in a Thermomixer Comfort (Eppendorf). The peptide preparations are subsequently centrifuged for 10 minutes at 9,000 rpm and the supernatant is used as an “Aβ stock” solution. The concentration of peptide in the “Aβ stock” is determined immediately by colorimetric assay using a Micro BCA Protein Assays kit (Pierce) from standard ranges produced using known amounts of bovine serum albumin (BSA) then the Aβ1-42 peptide solution is aliquoted and frozen rapidly in liquid nitrogen prior to being stored at −20° C. until being used.
Salts are generated by adding one hydrochloric acid equivalent per nitrogen group equivalent of the ligand dissolved in DMSO. After evaporation of the solvent, these salts are dissolved at the desired concentration with DMSO and kept at −20° C. until they are used.
The protocol was established from works by: C. S. Atwood et al., J. Neurochem. […] The final concentrations are given. 500 μl of Aβ1-42 (5 μM is set to aggregate in 20 mM Tris-HCl buffer containing 150 mM NaCl (pH=7.4) for 1 hour at 37° C. while stirring at 1,400 rpm in the absence or presence of metal ions: CuCl2, ZnCl2 or FeCl3 (20 μM). Then 50 pi of ligand to be tested (200 μM) dissolved in DMSO are added and the samples are incubated for 1 further hour at 37° C. while stirring at 1,400 rpm. The samples without ligand also receive 50 μl of DMSO. The samples (final volume=550 μ) are subsequently centrifuged for 20 min at 9,000 rpm, and 500 μl of supernatant are removed. The tube containing the precipitation pellet then receives 450 μl of assay buffer/DMSO mixture (91/9, v/v). […] Quantification is carried out on the basis of standard BSA ranges. The amounts of Aβ1-42 actually contained in the pellet and the supernatant are obtained after a correction due to the presence of a residual portion of supernatant in the pellet-containing fraction.
For the control experiments with derivatives comprising a single quinoline residue, […] of ligand were added because complexes of type L2Cu are conventionally used in these cases.

[4] = Hydrogen peroxide produced by Aβ1-42 in the presence of CuCl2, ascorbate, air and ligand (Amplex Red H2O2/HRP); format: biochemical; conditions: CuCl2 0.4 μM, ascorbate 10 μM, air
Method: (§4) FIG. 11: Variation in H2O2 production by copper complexes of Aβ1-42 peptide as a function of the Cu(II)/Aβ stoichiometry. Experiments are carried out for 5 minutes in a sodium phosphate buffer (pH=7.4) in the presence 0.4 μM CuCl2, 10 μM ascorbate and air with or without 0.4 μM of 3 or 7. The H2O2 released is quantified by means of an Amplex-Red H2O2/HRP Assay kit.
(§5) The final concentrations are given. The reactions were carried out in the dark in mM sodium phosphate buffer (pH=7.4). Aβ1-42 (0.2 μM) and CuCl2 (0.4 μM) were pre-incubated for 1 hour at 37° C. while stirring at 1,400 rpm in 375 μl of buffer. Then 2 μl of a solution of ligand to be investigated (0.2; 0.4 or 0.8 μM) in DMSO were added. After incubation for a further hour, 2 μl of an aqueous sodium ascorbate solution (10 μM) were added and incubation was continued for 5 min while stirring. The amount of H2O2 produced is then quantified using an Amplex Red H2O2/HRP Assay Kit (Molecular Probes) while adding a volume of assay reagent to the samples, then incubating them for 1 hour at 37° C. while stirring at 500 rpm. […] Quantification is carried out on the basis of standard curves obtained with known amounts of H2O2.
(§6) The figures in the tables correspond to the amount of H2O2 (expressed in nanomoles) added using an Amplex Red H2O2/HRP Assay kit.

[5] = biological target: T2, copper complexes of Aβ1-42 peptide (Homo sapiens, UniProt P05067); experiment: as above; format: biochemical; conditions: CuCl2 0.4 μM, ascorbate 10 μM, air
T2 construct: The β-amyloid peptide Aβ1-42 (Aβ1-42) was synthesised, purified (to a purity greater than 95%); made in house; host or cells: chemical peptide synthesis (no expression host)
Method: as §4, §5, §6

[6] = Determination of log D7.4 (1-octanol / Tris-HCl buffer); format: physicochemical; conditions: 1-octanol / 20 mM Tris-HCl buffer containing 150 mM NaCl (pH = 7.4) (1/1, v/v)
Method: The ligand (2.0 mg) is dissolved in 2 ml of 1-octanol then 2 ml of 20 mM Tris-HCl buffer, pH=7.4 containing 150 mM NaCl are added. After mixing in a vortex for 3 min at ambient temperature, followed by centrifugation for 5 min at 9,000 rpm, the concentration of the ligand in each phase is determined by UV-visible spectrophotometry. The 1-octanol fractions are thus redivided until reproducible values of coefficient of division of obtained. This coefficient is expressed as the decimal logarithm of [(the concentration of ligand contained in the 1-octanol phase)/(the concentration of ligand contained in the buffered aqueous phase)]=log D7.4. Measurements were taken three times.

[7] = Competition reaction between ligand (Ls), ZnCl2 and competing chelator (Lc), UV-visible; affinity constants; format: binding; conditions: Ls/ZnCl2/Lc 1/1/1 at 15 μM; solvent per ligand as in Table 3
Method: An organic solvent (CH3OH, dioxane or DMSO) was added in order to achieve good solubility of all the ligands and metal complexes in the concentrations used in these experiments.
As the concentration [MLs]=x % of C is measured on the UV-visible spectra, the concentrations [Ls]=(1−x) % of C, [MLc]=(1−x) % of C and [Lc]=x % of C can be deduced therefrom and:
In these conditions, [MLs]=[MLc]; [MLs]+[Lc]=Y, y≧50 and:
When log Ks 6, these equations are not used since the percentages of metal ion which is free in the solution or chelated by the solvent or the buffer are not negligible.

[8] = UV-visible spectrophotometric titration with ZnCl2 (metal/ligand stoichiometry); format: binding; conditions: 15 μM ligand; Tris-HCl buffer pH 7.4/organic solvent, per ligand as in Table 3 column Solvent
Method: as §1, §2, §3

[9] = tested on: Salmonella tiphimurium TA98; experiment: AMES test, TA98; conditions: value per plate
Description: (§7) AMES test: The method is adapted from D. M. Maron and B. N. Ames, Mutat.
(§8) The test involves evaluating the potential of the tested molecules to induce mutation which is reverse to the histidine locus of these lines. These two lines were provided by Dr. Bruce N. Ames (University of California, Berkeley, USA). They are resistant to Ampicillin and sensitive to Tetracycline. They are not mutant toward rfa, UvγV and UvγA. The line TA98 (his D3052) contains a mutation of reading phase (GC) whereas the line TA100 (his G46) contains a substitution of base pair (GC).
(§9) The compounds to be tested were dissolved in 100% of DMSO (the solvent) and diluted logarithmically (by a factor of 10) so as to obtain 4 test concentrations of 30,000; 3,000; 300 and 30 μg/ml. Each series of 0.1 ml of stock solution to be tested, 0.1 ml of test line and of culture medium with or without 0.5 ml of enzymatic homogenate (S9) of rat liver microsome were mixed with 2 ml of molten agarose (containing 0.5 mM of histidine and 0.5 mM of biotin). This mixture was placed on the surface of a plate of minimal agarose glucose medium (30 ml for each Petri dish) so as to obtain final concentrations of compound to be tested of 3,000; 300; 30 and 3 μγ/plate. The plates were then incubated at 37° C. for 48 hours. […] The revertant colonies of the test lines were counted using a colony counter (Sigma). […] A compound inducing a number of colonies <50% of cells obtained for the solvent alone was deemed to be toxic for the bacteria tested. All the experiments were carried out in triplicate.

[10] = tested on: Salmonella tiphimurium TA100; experiment: AMES test, TA100; conditions: value per plate
Description: as §7, §8, §9

T2 sequence (P05067 672-713 limits assumed, one chain of several): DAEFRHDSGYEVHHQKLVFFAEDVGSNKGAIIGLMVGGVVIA
T1 sequence (P05067 672-713): as the sequence (P05067 672-713 limits assumed, one chain of several) above

Structure (SMILES) | percentage of the CuLs species at equilibrium, competing ligand EDDA [1] [%] | percentage of the CuLs species at equilibrium, competing ligand EDTA [1] [%] | Complex observed by titration with Cu^II (observed L/Cu(II) stoichiometry) [2] | CuCl2 % soluble Aβ [3] [%] | FeCl3 % soluble Aβ [3] [%] | ZnCl2 % soluble Aβ [3] [%] | without metal % soluble Aβ [3] [%] | amount of H2O2, without Aβ1-42 ([4]; ligand 1 eq/Cu(II) (0.4 μM)) [nmol] | amount of H2O2, 0.2 μM Aβ1-42 Cu/Aβ = 2 ([5]; ligand 1 eq/Cu(II) (0.4 μM)) [nmol] | amount of H2O2, 0.5 μM Aβ1-42 Cu/Aβ = 0.75 ([5]; ligand 1 eq/Cu(II) (0.4 μM)) [nmol] | logD at 3 min [6] | percentage of ZnLs species at equilibrium, competing ligand EDTA [7] [%] | Complex observed by titration with Zn^II (observed L/Zn(II) stoichiometry) [8] | TA98 Cytotoxicity ([9]; Addition of S9: no) [µg] | TA98 Cytotoxicity ([9]; Addition of S9: yes) [µg] | amount of H2O2, without Aβ1-42 ([4]; ligand 2 eq/Cu(II)) [nmol] | amount of H2O2, 0.2 μM Aβ1-42 Cu/Aβ = 2 ([5]; ligand 2 eq/Cu(II)) [nmol] | amount of H2O2, 0.5 μM Aβ1-42 Cu/Aβ = 0.75 ([5]; ligand 2 eq/Cu(II)) [nmol] | TA100 Cytotoxicity ([10]; Addition of S9: no) [µg] | TA100 Cytotoxicity ([10]; Addition of S9: yes) [µg]
c1cnc2c(NCCCNc3cccc4cccnc34)cccc2c1 [Compound 13, N,N′-di-8-quinolinyl-1,3-propanediamine] | 65 | 25 | LCu^II(1/1) | 55 ± 3 | 66 | 57 | 71 ± 2 | 0.89 | 2.10 | 0.70 | 2.7 ± 0.1 |  |  |  |  |  |  |  |  | 
COc1ccc2ccc(CCc3ccc4ccc(OC)c(O)c4n3)nc2c1O [Compound 17, 2,2′-(1,2-ethanediyl)-bis[7-(methyloxy)-8-quinolinol]] |  | 55 | LCu^II(1/1) | 38 ± 4 | 38 | 42 ± 4 | 63 ± 3 |  | 0.69 |  | 3.5 ± 0.1 | 35 | LZn^II(1/1) |  |  |  |  |  |  | 
Oc1c(I)cc(Cl)c2cccnc12 [Clioquinol, reference compound] |  |  |  | 55 ± 3 | 51 | 37 | 63 | 2.07 | 0.89 ± 0.08 | 0.64 | 3.8 ± 0.1 |  |  | 300 | 300 | 0.54 | 0.78 ± 0.06 | 0.57 | 30 | 30
CCCCN(c1ccc2cccc(N)c2n1)c1ccc2cccc(N)c2n1 [Compound 23, N-butyl-2,2′-imino-bis(8-quinolineamine)] |  | 30 | LCu^II(1/1) | 60 ± 4 | 62 | 58 ± 4 | 73 | 0.65 | 0.69 | 0.49 | 2.5 ± 0.1 |  |  |  |  |  |  |  |  | 
Oc1cccc2ccc(CCCCc3ccc4cccc(O)c4n3)nc12 [Compound 10, 2,2′-(1,4-Butanediyl)-bis(8-hydroxyquinoline)] |  | 45 | LCu^II(1/1) | 42 | 43 | 43 | 52 |  |  |  | 3.8 ± 0.1 | 45 | LZn^II(1/1) |  |  |  |  |  |  | 
